Earlier results in PMC5526139 (Xenobiotica; the Fate of Foreign Compounds in Biological …, 2016).

Design: method as in Zhang et al., 2011
Settings: ref Zhang et al., 2011

half-life in Phase 1 clinical trial (man): 0.7 h
predicted half-life in man (prediction before the clinical trial): 6 h
Compound: CC(O)Cn1c(=O)c(Oc2ccc(F)cc2F)cc2cnc(NC(C)CO)nc21 (centres unmarked) [6-(2,4-difluorophenoxy)-2-[(1-hydroxypropan-2-yl)amino]-8-(2-hydroxypropyl)-7H,8H-pyrido[2,3-d]pyrimidin-7-one]
